Results reported in patent US9657057B2, “Dipeptide and tripeptide epoxy ketone protease inhibitors” (Onyx Therapeutics, Inc., priority 2013, dated 2017).
Converted amounts (≈) assume the structure as drawn. “And” between values parts separate entries of the source, which are not always exact repeats. Equal values may be shown once.

Legend:
LMP7 = target: T1, LMP7 (Homo sapiens, UniProt P20618+P28062); assay: ProCISE proteasome subunit assay, LMP7; assay type: biochemical
T1 construct: endogenous in cells; host or cells: MOLT-4
Summary of the method: (§1)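 MOLT-4 cell lysate was incubated with compound for 1 h at 25° C, then a subunit-binding probe was applied; probe-bound subunits were pulled down on streptavidin beads after guanidine denaturation and detected with subunit-specific antibodies by HRP chemiluminescence. Signal was normalized to protein and expressed as percent of DMSO control to fit IC50.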

β5 = target: T2, β5 (Homo sapiens, UniProt P20618+P28074); assay: ProCISE proteasome subunit assay, β5; assay type: biochemical
T2 construct: endogenous in cells; host or cells: MOLT-4
Summary of the method: as §1

Solubility pH 7 = assay type: physicochemical; conditions: pH 7, aqueous buffer
[1] = target: i20S (20S immunoproteasome) (Homo sapiens, UniProt P20618+P28062); assay: 20S proteasome assay, chymotrypsin-like activity (LLVY), i20S; assay type: biochemical; conditions: LLVY i20S Hu 1 h CONT: IC50 (nM), succinyl-Leu-Leu-Val-Tyr-AMC
Description: (§2) Assay buffer consisted of TE buffer [20 mmol/L Tris (pH 8.0), 0.5 mmol/L EDTA] with (20S) or without (cell lysate) 0.03% SDS. Reactions were initiated by enzyme or lysate addition and monitored for AMC product formation at 27jC with a plate-based spectofluorometer (Tecan).

[2] = target: c20S (constitutive 20S proteasome) (Homo sapiens, UniProt P20618+P28074); assay: 20S proteasome assay, chymotrypsin-like activity (LLVY), c20S; assay type: biochemical; conditions: LLVY c20S Hu 1 h CONT: IC50 (nM), succinyl-Leu-Leu-Val-Tyr-AMC
Description: as §2

Row | SMILES | IC50 (LMP7; MOLT4 lysate Hu 1 h) | IC50 (β5; MOLT4 lysate Hu 1 h) | solubility (Solubility pH 7) | IC50 [1] | IC50 [2] | IC50 (LMP7; ProCISE LMP7 MOLT4 lysate Hu 1 h CONT: IC50 (nM)) | IC50 (β5; ProCISE beta5 MOLT4 lysate Hu 1 h CONT: IC50 (nM))
1 | COc1ccc(C[C@H](NC(=O)[C@@H](CO)NC(=O)c2cc(C)no2)C(=O)N[C@@H](CC2CCCC2)C(=O)[C@@]2(C)CO2)cc1 [Compound C-2030, N—((R)-1-(((S)-1-(((S)-3-cyclopentyl-1-((R)-2-methyloxiran-2-yl)-1-oxopropan-2-yl)amino)-3-(4-methoxyphenyl)-1-oxopropan-2-yl)amino)-3-hydroxy-1-oxopropan-2-yl)-3-methylisoxazole-5-carboxamide] | 315 nM | 2130 nM | 286 µg/mL (≈ 502 µM) | 71.7 nM | 785 nM |  | 
2 | COc1ccc(C[C@H](NC(=O)[C@@H](C)NC(=O)c2ccccn2)C(=O)N[C@@H](CC2CCCC2)C(=O)[C@@]2(C)CO2)cc1 [Compound C-2031, N—((R)-1-(((S)-1-(((S)-3-cyclopentyl-1-((R)-2-methyloxiran-2-yl)-1-oxopropan-2-yl)amino)-3-(4-methoxyphenyl)-1-oxopropan-2-yl)amino)-1-oxopropan-2-yl)picolinamide] | 1450 nM | 26700 nM | 41.7 µg/mL (≈ 75.7 µM) | 763 nM | 18300 nM |  | 
3 | COc1ccc(C[C@H](NC(=O)[C@@H](C)NC(=O)c2cccnc2)C(=O)N[C@@H](CC2CCCC2)C(=O)[C@@]2(C)CO2)cc1 [Compound C-2032, N—((R)-1-(((S)-1-(((S)-3-cyclopentyl-1-((R)-2-methyloxiran-2-yl)-1-oxopropan-2-yl)amino)-3-(4-methoxyphenyl)-1-oxopropan-2-yl)amino)-1-oxopropan-2-yl)nicotinamide] | 452 nM | 4050 nM | 172 µg/mL (≈ 313 µM) | 107 nM | 1890 nM |  | 
4 | COc1ccc(C[C@H](NC(=O)[C@@H](C)NC(=O)c2ccncc2)C(=O)N[C@@H](CC2CCCC2)C(=O)[C@@]2(C)CO2)cc1 [Compound C-2033, N—((R)-1-(((S)-1-(((S)-3-cyclopentyl-1-((R)-2-methyloxiran-2-yl)-1-oxopropan-2-yl)amino)-3-(4-methoxyphenyl)-1-oxopropan-2-yl)amino)-1-oxopropan-2-yl)isonicotinamide] | 46700 nM | > 250000 nM | 165 µg/mL (≈ 299 µM) | 1450 nM | 10100 nM |  | 
5 | COc1ccc(C[C@H](NC(=O)[C@@H](NC(=O)OCc2ccccc2)C2COC2)C(=O)N[C@@H](Cc2ccccc2)C(=O)[C@@]2(C)CO2)cc1 [Compound C-2035, benzyl ((S)-2-(((S)-3-(4-methoxyphenyl)-1-(((S)-1-((R)-2-methyloxiran-2-yl)-1-oxo-3-phenylpropan-2-yl)amino)-1-oxopropan-2-yl)amino)-1-(oxetan-3-yl)-2-oxoethyl)carbamate] | 13.2 nM | 21.1 nM | 3.1 µg/mL (≈ 4.92 µM) | 4.6 nM | 15.3 nM |  | 
6 | COc1ccc(C[C@H](NC(=O)[C@@H](C)NC(=O)C2=CCCC2)C(=O)N[C@@H](CC2CCCC2)C(=O)[C@@]2(C)CO2)cc1 [Compound C-2037, N—((R)-1-(((S)-1-(((S)-3-cyclopentyl-1-((R)-2-methyloxiran-2-yl)-1-oxopropan-2-yl)amino)-3-(4-methoxyphenyl)-1-oxopropan-2-yl)amino)-1-oxopropan-2-yl)cyclopent-1-enecarboxamide] | 466 nM | 9630 nM | 3.6 µg/mL (≈ 6.67 µM) | 891 nM | 6080 nM |  | 
7 | COc1ccc(C[C@H](NC(=O)[C@@H](C)NC(=O)c2nc3ccccc3n2C)C(=O)N[C@@H](CC2CCCC2)C(=O)[C@@]2(C)CO2)cc1 [Compound C-2038, N—((R)-1-(((S)-1-(((S)-3-cyclopentyl-1-((R)-2-methyloxiran-2-yl)-1-oxopropan-2-yl)amino)-3-(4-methoxyphenyl)-1-oxopropan-2-yl)amino)-1-oxopropan-2-yl)-1-methyl-1H-benzo[d]imidazole-2-carboxamide] | 286 nM | 2700 nM | 1.8 µg/mL (≈ 2.98 µM) | 722 nM and 649 nM | 3550 nM and 7630 nM |  | 
8 | COc1ccc(C[C@H](NC(=O)[C@@H](C)NC(=O)C2=C(C)c3ccccc3C2)C(=O)N[C@@H](CC2CCCC2)C(=O)[C@@]2(C)CO2)cc1 [Compound C-2040, N—((R)-1-(((S)-1-(((S)-3-cyclopentyl-1-((R)-2-methyloxiran-2-yl)-1-oxopropan-2-yl)amino)-3-(4-methoxyphenyl)-1-oxopropan-2-yl)amino)-1-oxopropan-2-yl)-3-methyl-1H-indene-2-carboxamide] | 75 nM | 3750 nM | 0.3 µg/mL (≈ 0.499 µM) | 624 nM | 4610 nM |  | 
9 | COc1ccc(C[C@H](NC(=O)[C@@H](C)NC(=O)C[C@@H](C)O)C(=O)N[C@@H](CC2CCCC2)C(=O)[C@@]2(C)CO2)cc1 [Compound C-2042, (R)—N—((R)-1-(((S)-1-(((S)-3-cyclopentyl-1-((R)-2-methyloxiran-2-yl)-1-oxopropan-2-yl)amino)-3-(4-methoxyphenyl)-1-oxopropan-2-yl)amino)-1-oxopropan-2-yl)-3-hydroxybutanamide] | 621 nM | 5920 nM | 1830 µg/mL (≈ 3450 µM) | 336 nM | 9450 nM |  | 
10 | COc1ccc(C[C@H](NC(=O)[C@@H](C)NC(=O)C[C@H](C)O)C(=O)N[C@@H](CC2CCCC2)C(=O)[C@@]2(C)CO2)cc1 [Compound C-2043, (S)—N—((R)-1-(((S)-1-(((S)-3-cyclopentyl-1-((R)-2-methyloxiran-2-yl)-1-oxopropan-2-yl)amino)-3-(4-methoxyphenyl)-1-oxopropan-2-yl)amino)-1-oxopropan-2-yl)-3-hydroxybutanamide] | 593 nM | 11000 nM | 2380 µg/mL (≈ 4480 µM) | 271 nM | 15100 nM |  | 
11 | COc1ccc(C[C@H](NC(=O)[C@@H](CN2CCOCC2)NC(=O)c2cc(C)no2)C(=O)N[C@@H](CC2CCCC2)C(=O)[C@@]2(C)CO2)cc1 [Compound C-2045, N—((R)-1-(((S)-1-(((S)-3-cyclopentyl-1-((R)-2-methyloxiran-2-yl)-1-oxopropan-2-yl)amino)-3-(4-methoxyphenyl)-1-oxopropan-2-yl)amino)-3-morpholino-1-oxopropan-2-yl)-3-methylisoxazole-5-carboxamide] | 220 nM | 2940 nM | 160 µg/mL (≈ 250 µM) | 102 nM | 1290 nM |  | 
12 | COc1ccc(C[C@H](NC(=O)[C@@H](C)NC(=O)C2=C(C)c3ccccc3C2)C(=O)N[C@@H](Cc2ccccc2)C(=O)[C@@]2(C)CO2)cc1 [Compound C-2048, N—((R)-1-(((S)-3-(4-methoxyphenyl)-1-(((S)-1-((R)-2-methyloxiran-2-yl)-1-oxo-3-phenylpropan-2-yl)amino)-1-oxopropan-2-yl)amino)-1-oxopropan-2-yl)-3-methyl-1H-indene-2-carboxamide] |  |  | 1.4 µg/mL (≈ 2.3 µM) | 55.2 nM | 411 nM | 48.6 nM | 379 nM
13 | C[C@@H](NC(=O)CC(C)(C)O)C(=O)N[C@@H](Cc1ccc(S(C)(=O)=O)cc1)C(=O)N[C@@H](CC1CCCC1)C(=O)[C@@]1(C)CO1 [Compound C-2050, N—((R)-1-(((S)-1-(((S)-3-cyclopentyl-1-((R)-2-methyloxiran-2-yl)-1-oxopropan-2-yl)amino)-3-(4-(methylsulfonyl)phenyl)-1-oxopropan-2-yl)amino)-1-oxopropan-2-yl)-3-hydroxy-3-methylbutanamide] | 67.1 nM | 595 nM | 6160 µg/mL (≈ 10400 µM) | 49.2 nM | 521 nM |  | 
14 | CC[C@](C)(O)CC(=O)N[C@H](C)C(=O)N[C@@H](Cc1ccc(OC)cc1)C(=O)N[C@@H](CC1CCCC1)C(=O)[C@@]1(C)CO1 [Compound C-2051, (S)—N—((R)-1-(((S)-1-(((S)-3-cyclopentyl-1-((R)-2-methyloxiran-2-yl)-1-oxopropan-2-yl)amino)-3-(4-methoxyphenyl)-1-oxopropan-2-yl)amino)-1-oxopropan-2-yl)-3-hydroxy-3-methylpentanamide] | 54.3 nM | 883 nM | 241 µg/mL (≈ 430 µM) | 34 nM | 459 nM |  | 
15 | CC[C@@](C)(O)CC(=O)N[C@H](C)C(=O)N[C@@H](Cc1ccc(OC)cc1)C(=O)N[C@@H](CC1CCCC1)C(=O)[C@@]1(C)CO1 [Compound C-2052, (R)—N—((R)-1-(((S)-1-(((S)-3-cyclopentyl-1-((R)-2-methyloxiran-2-yl)-1-oxopropan-2-yl)amino)-3-(4-methoxyphenyl)-1-oxopropan-2-yl)amino)-1-oxopropan-2-yl)-3-hydroxy-3-methylpentanamide] | 38.5 nM | 560 nM | 160 µg/mL (≈ 286 µM) | 10.8 nM | 316 nM |  | 
16 | COc1ccc(C[C@H](NC(=O)[C@@H](C)NC(=O)CC(C)(O)C(F)(F)F)C(=O)N[C@@H](CC2CCCC2)C(=O)[C@@]2(C)CO2)cc1 (stereo partly drawn) [Compound C-2054, N—((R)-1-(((S)-1-(((S)-3-cyclopentyl-1-((R)-2-methyloxiran-2-yl)-1-oxopropan-2-yl)amino)-3-(4-methoxyphenyl)-1-oxopropan-2-yl)amino)-1-oxopropan-2-yl)-4,4,4-trifluoro-3-hydroxy-3-methylbutanamide] | 75 nM | 670 nM | 122 µg/mL (≈ 204 µM) | 55 nM | 723 nM |  | 
